From patent publication US20220281848A1, “PYRAZOLE-SUBSTITUTED PYRROLIDINONES AS HERBICIDES” (FMC Corporation, priority 2019, published 2022)

Tested on: plants
Test: Test D pre-emergence, other plants of Tables D1 and D3
Type: in vivo
Settings: preemergent, 20 DAA
Method in brief: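 Seeds treated with herbicide safener; sown in soil; glasshouse, 16 h light, 65% humidity. Sprayed day 1 (pre) or ~day 12 (post). Spray in 0.2% v/v adjuvant. Scored 0–100 damage: 20 DAA pre, 15 d post.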

CCn1nc([C@@H]2CN(C)C(=O)[C@H]2C(=O)Nc2cccc(F)c2F)c2cccc(F)c21 [Compound 14] was tested, and the “damage to plant (100=total damage to plant; 0=no damage to plant), ABUTH” value (rate 15) was 0, the “damage to plant (100=total damage to plant; 0=no damage to plant), ABUTH” value (rate 30) was 0 and the “damage to plant (100=total damage to plant; 0=no damage to plant), ABUTH” value (rate 60) was 0. The “damage to plant (100=total damage to plant; 0=no damage to plant), ABUTH” value (rate 130) was 0, the “damage to plant (100=total damage to plant; 0=no damage to plant), ABUTH” value (rate 250) was 10 and the “damage to plant (100=total damage to plant; 0=no damage to plant), ABUTH” value (rate 500) was 20. For the same molecule, the “damage to plant (100=total damage to plant; 0=no damage to plant), AMARE” value (rate 15) was 0, the “damage to plant (100=total damage to plant; 0=no damage to plant), AMARE” value (rate 30) was 0 and the “damage to plant (100=total damage to plant; 0=no damage to plant), AMARE” value (rate 60) was 0. For the same molecule, the “damage to plant (100=total damage to plant; 0=no damage to plant), AMARE” value (rate 130) was 0, the “damage to plant (100=total damage to plant; 0=no damage to plant), AMARE” value (rate 250) was 0 and the “damage to plant (100=total damage to plant; 0=no damage to plant), AMARE” value (rate 500) was 0. The “damage to plant (100=total damage to plant; 0=no damage to plant), BIDPI” value (rate 15) was 0, the “damage to plant (100=total damage to plant; 0=no damage to plant), BIDPI” value (rate 30) was 0 and the “damage to plant (100=total damage to plant; 0=no damage to plant), BIDPI” value (rate 60) was 0. The “damage to plant (100=total damage to plant; 0=no damage to plant), BIDPI” value (rate 130) was 0, the “damage to plant (100=total damage to plant; 0=no damage to plant), BIDPI” value (rate 250) was 0 and the “damage to plant (100=total damage to plant; 0=no damage to plant), BIDPI” value (rate 500) was 0. The “damage to plant (100=total damage to plant; 0=no damage to plant), BRAPL” value (rate 15) was 30, the “damage to plant (100=total damage to plant; 0=no damage to plant), BRAPL” value (rate 30) was 40 and the “damage to plant (100=total damage to plant; 0=no damage to plant), BRAPL” value (rate 60) was 60. The “damage to plant (100=total damage to plant; 0=no damage to plant), BRAPL” value (rate 130) was 90, the “damage to plant (100=total damage to plant; 0=no damage to plant), BRAPL” value (rate 250) was 90 and the “damage to plant (100=total damage to plant; 0=no damage to plant), BRAPL” value (rate 500) was 90. For the same molecule, the “damage to plant (100=total damage to plant; 0=no damage to plant), CYPES” value (rate 15) was 0, the “damage to plant (100=total damage to plant; 0=no damage to plant), CYPES” value (rate 30) was 0 and the “damage to plant (100=total damage to plant; 0=no damage to plant), CYPES” value (rate 60) was 0. The “damage to plant (100=total damage to plant; 0=no damage to plant), CYPES” value (rate 130) was 0, the “damage to plant (100=total damage to plant; 0=no damage to plant), CYPES” value (rate 250) was 0 and the “damage to plant (100=total damage to plant; 0=no damage to plant), CYPES” value (rate 500) was 0. The “damage to plant (100=total damage to plant; 0=no damage to plant), DIGSA” value (rate 15) was 60, the “damage to plant (100=total damage to plant; 0=no damage to plant), DIGSA” value (rate 30) was 80 and the “damage to plant (100=total damage to plant; 0=no damage to plant), DIGSA” value (rate 60) was 90. The “damage to plant (100=total damage to plant; 0=no damage to plant), DIGSA” value (rate 130) was 90, the “damage to plant (100=total damage to plant; 0=no damage to plant), DIGSA” value (rate 250) was 90 and the “damage to plant (100=total damage to plant; 0=no damage to plant), DIGSA” value (rate 500) was 90. The “damage to plant (100=total damage to plant; 0=no damage to plant), ECHCG” value (rate 15) was 30, the “damage to plant (100=total damage to plant; 0=no damage to plant), ECHCG” value (rate 30) was 50 and the “damage to plant (100=total damage to plant; 0=no damage to plant), ECHCG” value (rate 60) was 70. The “damage to plant (100=total damage to plant; 0=no damage to plant), ECHCG” value (rate 130) was 90, the “damage to plant (100=total damage to plant; 0=no damage to plant), ECHCG” value (rate 250) was 90 and the “damage to plant (100=total damage to plant; 0=no damage to plant), ECHCG” value (rate 500) was 90. The “damage to plant (100=total damage to plant; 0=no damage to plant), ELEIN” value (rate 15) was 0, the “damage to plant (100=total damage to plant; 0=no damage to plant), ELEIN” value (rate 30) was 0 and the “damage to plant (100=total damage to plant; 0=no damage to plant), ELEIN” value (rate 60) was 0. For the same molecule, the “damage to plant (100=total damage to plant; 0=no damage to plant), ELEIN” value (rate 130) was 0, the “damage to plant (100=total damage to plant; 0=no damage to plant), ELEIN” value (rate 250) was 0 and the “damage to plant (100=total damage to plant; 0=no damage to plant), ELEIN” value (rate 500) was 0. The “damage to plant (100=total damage to plant; 0=no damage to plant), EPHHL” value (rate 15) was 0, the “damage to plant (100=total damage to plant; 0=no damage to plant), EPHHL” value (rate 30) was 0 and the “damage to plant (100=total damage to plant; 0=no damage to plant), EPHHL” value (rate 60) was 0. For the same molecule, the “damage to plant (100=total damage to plant; 0=no damage to plant), EPHHL” value (rate 130) was 0, the “damage to plant (100=total damage to plant; 0=no damage to plant), EPHHL” value (rate 250) was 10 and the “damage to plant (100=total damage to plant; 0=no damage to plant), EPHHL” value (rate 500) was 20. The “damage to plant (100=total damage to plant; 0=no damage to plant), GLXMA” value (rate 15) was 0, the “damage to plant (100=total damage to plant; 0=no damage to plant), GLXMA” value (rate 30) was 0 and the “damage to plant (100=total damage to plant; 0=no damage to plant), GLXMA” value (rate 60) was 0. The “damage to plant (100=total damage to plant; 0=no damage to plant), GLXMA” value (rate 130) was 0, the “damage to plant (100=total damage to plant; 0=no damage to plant), GLXMA” value (rate 250) was 0 and the “damage to plant (100=total damage to plant; 0=no damage to plant), GLXMA” value (rate 500) was 0. The “damage to plant (100=total damage to plant; 0=no damage to plant), IPOHE” value (rate 15) was 0, the “damage to plant (100=total damage to plant; 0=no damage to plant), IPOHE” value (rate 30) was 0 and the “damage to plant (100=total damage to plant; 0=no damage to plant), IPOHE” value (rate 60) was 0. The “damage to plant (100=total damage to plant; 0=no damage to plant), IPOHE” value (rate 130) was 0, the “damage to plant (100=total damage to plant; 0=no damage to plant), IPOHE” value (rate 250) was 0 and the “damage to plant (100=total damage to plant; 0=no damage to plant), IPOHE” value (rate 500) was 0. For the same molecule, the “damage to plant (100=total damage to plant; 0=no damage to plant), ORYSA” value (rate 15) was 0, the “damage to plant (100=total damage to plant; 0=no damage to plant), ORYSA” value (rate 30) was 0 and the “damage to plant (100=total damage to plant; 0=no damage to plant), ORYSA” value (rate 60) was 0. The “damage to plant (100=total damage to plant; 0=no damage to plant), ORYSA” value (rate 130) was 0, the “damage to plant (100=total damage to plant; 0=no damage to plant), ORYSA” value (rate 250) was 0 and the “damage to plant (100=total damage to plant; 0=no damage to plant), ORYSA” value (rate 500) was 0. For the same molecule, the “damage to plant (100=total damage to plant; 0=no damage to plant), PANMI” value (rate 15) was 0, the “damage to plant (100=total damage to plant; 0=no damage to plant), PANMI” value (rate 30) was 0 and the “damage to plant (100=total damage to plant; 0=no damage to plant), PANMI” value (rate 60) was 0. The “damage to plant (100=total damage to plant; 0=no damage to plant), PANMI” value (rate 130) was 0, the “damage to plant (100=total damage to plant; 0=no damage to plant), PANMI” value (rate 250) was 30 and the “damage to plant (100=total damage to plant; 0=no damage to plant), PANMI” value (rate 500) was 80. For the same molecule, the “damage to plant (100=total damage to plant; 0=no damage to plant), SETFA” value (rate 15) was 30, the “damage to plant (100=total damage to plant; 0=no damage to plant), SETFA” value (rate 30) was 70 and the “damage to plant (100=total damage to plant; 0=no damage to plant), SETFA” value (rate 60) was 80. For the same molecule, the “damage to plant (100=total damage to plant; 0=no damage to plant), SETFA” value (rate 130) was 80, the “damage to plant (100=total damage to plant; 0=no damage to plant), SETFA” value (rate 250) was 90 and the “damage to plant (100=total damage to plant; 0=no damage to plant), SETFA” value (rate 500) was 90. For the same molecule, the “damage to plant (100=total damage to plant; 0=no damage to plant), SIDSP” value (rate 15) was 10, the “damage to plant (100=total damage to plant; 0=no damage to plant), SIDSP” value (rate 30) was 10 and the “damage to plant (100=total damage to plant; 0=no damage to plant), SIDSP” value (rate 60) was 30. The “damage to plant (100=total damage to plant; 0=no damage to plant), SIDSP” value (rate 130) was 30, the “damage to plant (100=total damage to plant; 0=no damage to plant), SIDSP” value (rate 250) was 80 and the “damage to plant (100=total damage to plant; 0=no damage to plant), SIDSP” value (rate 500) was 80. The “damage to plant (100=total damage to plant; 0=no damage to plant), SORVU” value (rate 15) was 0, the “damage to plant (100=total damage to plant; 0=no damage to plant), SORVU” value (rate 30) was 0 and the “damage to plant (100=total damage to plant; 0=no damage to plant), SORVU” value (rate 60) was 0.
